We go through eight compounds from patent publication US10730875B2, “Substituted imidazo[1,2-A]pyridin-2-ylamine compounds, and pharmaceutical compositions and methods of use thereof” (JN Therapeutics, priority 2015, dated 2020).

Format in all cases: biochemical
The target of experiment [1] is human Janus kinase 1 (JAK1), recombinant catalytic domain (Homo sapiens (Human), UniProt P23458). The experiment is described as follows: LanthaScreen TR-FRET enzymatic assay, JAK1. The note with it: 1 mM ATP, GFP-STAT1 substrate, read-out: Inhibitory Activity IC50 JAK1. How it is done:
(§1) The in vitro inhibition of recombinant human JAKs was determined as follow.
(§2) Compounds were tested in LANTHASCREEN™ time-resolved fluorescence energy transfer (TR-FRET) enzymatic assays from Invitrogen. The human Janus kinase 1 (JAK1) used in the assay is the recombinant JAK1 catalytic domain (amino acids 866-1154) expressed and purified from insect cells (Invitrogen, Cat. No. PV4774). The human Janus kinase 2 (JAK2) used in the assay is the recombinant JAK2 catalytic domain (amino acids 808-1132) expressed and purified from insect cells (Invitrogen, Cat. No. PV4210). The human Janus kinase 3 (JAK3) used in the assay is the recombinant JAK3 catalytic domain (amino acids 781-1124) expressed and purified from insect cells (Invitrogen, Cat. No. PV3855). The human tyrosine kinase 2 (TYK2) used in the assay is the recombinant TYK2 catalytic domain (amino acids 833-1187) expressed and purified from insect cells (Invitrogen, Cat. No. PV4790). The substrate is a recombinant STAT1 expressed as a fusion with GFP (Green Fluorescent Protein) to act as a physiological substrate (Invitrogen, Cat. No. PV5211).
(§3) Test compounds were prepared and diluted in DMSO in 3-fold serial dilutions for 10 doses to 100× of the final testing concentrations. The compounds were then further diluted to 4× by the kinase reaction buffer (Invitrogen, Cat. No. PV3189). The enzymatic reaction for compound testing was performed in a white 384-well polypropylene plate (Packard, Cat. No. 6005214) with a total reaction volume of 10 μL containing 440 ng/mL JAK1, 11 ng/mL JAK2, 400 ng/mL JAK3, or 200 ng/mL TYK2, 100 nM substrate, and 1 mM ATP. The assay started with loading 2.5 μL of JAK1, JAK2, JAK3, or TYK2 diluted in the kinase reaction buffer to wells, followed by addition of an equal volume of 4× compounds for 15-min incubation at room temperature for pre-treatment. The enzymatic reaction was initiated by addition of 5 μL of a mixture of the substrate and ATP prepared in the kinase reaction buffer. After one hour reaction, 10 μL mixture of EDTA (final 10 mM) and terbium-labeled anti-pSTAT1 (pTyr701) antibody (final 2 nM) (Invitrogen, Cat. No. PV4844) prepared in TR-FRET antibody dilution buffer (Invitrogen, Cat. No. PV3574) was added to stop the enzymatic reaction and produce TR-FRET signals. After 30 minutes of incubation at room temperature, the plate was read in Tecan Infinite F200 Pro with the following settings: Excitation 340 nm (30)/Emission1 495 nm (10)/Emission2 520 nm (25). The TR-FRET values were dimensionless numbers that were calculated as the ratio of the acceptor ([…]) signal to the donor (Terbium) signal. Percent of inhibition was calculated as (100%−percentage of compound-treated/DMSO vehicle-treated). The dose-response curves were generated and the IC50s were calculated by nonlinear sigmoid curve fitting using GraphPad Prism.
(§4) In Table 1, A represents a value no greater than 500 nM, B represents a value greater than 500 nM but no greater than 1 μM, C represents a value greater than 1 μM but no greater than 5 μM, and D represents a value greater than 5 μM. In Table 2, A′ represents a ratio of greater than 8, B′ represents a ratio of no greater than 8 but no less than 4, C′ represents a ratio of no greater than 4 but no less than 2, and D′ represents a ratio of no greater than 2. The selectivity is expressed as a ratio of the IC50 values of a compound against two kinases to be compared.

Experiment [2] deals with human Janus kinase 2 (JAK2), recombinant catalytic domain (Homo sapiens (Human), UniProt O60674). The experiment is described as follows: LanthaScreen TR-FRET enzymatic assay, JAK2. As to conditions: for IC50: TR-FRET, 1 mM ATP, GFP-STAT1 substrate, read-out: Inhibitory Activity IC50 JAK2; for Selectivity JAK2/JAK1: ratio of IC50 against JAK2 over IC50 against JAK1. How it is done: as §1, §2, §3, §4

Experiment [3] has as its target human Janus kinase 3 (JAK3), recombinant catalytic domain (Homo sapiens (Human), UniProt P52333). The experiment is described as follows: LanthaScreen TR-FRET enzymatic assay, JAK3. The note with it: TR-FRET, 1 mM ATP, GFP-STAT1 substrate; read-out: Inhibitory Activity IC50 JAK3. How it is done:
as §1, §2, §3, §4
(In TR-FRET formats the signal depends on donor and acceptor labels being close together.)

For experiment [4], the system named is human Janus kinase 3 (JAK3), recombinant catalytic domain. The experiment is described as follows: LanthaScreen TR-FRET enzymatic assay, JAK3. As to conditions: ratio of IC50 against JAK3 over IC50 against JAK1. How it is done:
as §1, §2, §3, §4

Experiment [5] has as its target human tyrosine kinase 2 (TYK2), recombinant catalytic domain (Homo sapiens (Human), UniProt P29597). The experiment is described as follows: LanthaScreen TR-FRET enzymatic assay, TYK2. The note with it: TR-FRET, 1 mM ATP, GFP-STAT1 substrate; read-out: Inhibitory Activity IC50 TYK2. As for the experimental part:
as §1, §2, §3, §4

Experiment [6] deals with human tyrosine kinase 2 (TYK2), recombinant catalytic domain. The experiment is described as follows: LanthaScreen TR-FRET enzymatic assay, TYK2. As to conditions: ratio of IC50 against TYK2 over IC50 against JAK1. How it is done: as §1, §2, §3, §4

Structures are written as SMILES. Some results are limits rather than exact numbers.

human tyrosine kinase 2 (TYK2), recombinant catalytic domain (Homo sapiens (Human), UniProt P29597), sequence (P29597 833-1187): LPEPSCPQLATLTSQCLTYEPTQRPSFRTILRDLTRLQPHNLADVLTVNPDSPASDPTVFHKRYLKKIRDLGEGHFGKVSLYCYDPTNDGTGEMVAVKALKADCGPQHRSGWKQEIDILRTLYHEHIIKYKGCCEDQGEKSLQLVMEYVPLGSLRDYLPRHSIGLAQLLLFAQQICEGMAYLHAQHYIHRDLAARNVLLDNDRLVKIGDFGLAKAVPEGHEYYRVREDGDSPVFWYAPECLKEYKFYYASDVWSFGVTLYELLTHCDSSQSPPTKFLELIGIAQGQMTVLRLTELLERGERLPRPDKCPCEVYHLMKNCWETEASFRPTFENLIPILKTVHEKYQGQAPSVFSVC
human Janus kinase 1 (JAK1), recombinant catalytic domain, sequence (P23458 866-1154): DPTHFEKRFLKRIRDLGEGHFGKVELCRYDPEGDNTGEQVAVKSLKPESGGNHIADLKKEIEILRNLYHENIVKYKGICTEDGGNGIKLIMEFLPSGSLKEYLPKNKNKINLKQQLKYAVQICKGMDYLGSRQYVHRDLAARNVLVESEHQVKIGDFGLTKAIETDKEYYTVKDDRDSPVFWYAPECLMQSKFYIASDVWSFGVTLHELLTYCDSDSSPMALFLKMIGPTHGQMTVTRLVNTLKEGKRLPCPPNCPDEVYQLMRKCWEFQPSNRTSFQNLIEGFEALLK
human Janus kinase 2 (JAK2), recombinant catalytic domain, sequence (O60674 808-1132): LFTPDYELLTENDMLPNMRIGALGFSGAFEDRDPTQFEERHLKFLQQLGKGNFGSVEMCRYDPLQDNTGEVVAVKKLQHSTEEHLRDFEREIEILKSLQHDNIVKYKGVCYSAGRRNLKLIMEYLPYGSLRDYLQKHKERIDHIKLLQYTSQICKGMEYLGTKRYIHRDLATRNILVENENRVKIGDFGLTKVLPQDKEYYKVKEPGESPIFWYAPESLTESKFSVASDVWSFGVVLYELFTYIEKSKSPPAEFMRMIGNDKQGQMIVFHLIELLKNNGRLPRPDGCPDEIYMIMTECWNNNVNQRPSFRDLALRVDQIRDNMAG
human Janus kinase 3 (JAK3), recombinant catalytic domain (Homo sapiens (Human), UniProt P52333), sequence (P52333 781-1124): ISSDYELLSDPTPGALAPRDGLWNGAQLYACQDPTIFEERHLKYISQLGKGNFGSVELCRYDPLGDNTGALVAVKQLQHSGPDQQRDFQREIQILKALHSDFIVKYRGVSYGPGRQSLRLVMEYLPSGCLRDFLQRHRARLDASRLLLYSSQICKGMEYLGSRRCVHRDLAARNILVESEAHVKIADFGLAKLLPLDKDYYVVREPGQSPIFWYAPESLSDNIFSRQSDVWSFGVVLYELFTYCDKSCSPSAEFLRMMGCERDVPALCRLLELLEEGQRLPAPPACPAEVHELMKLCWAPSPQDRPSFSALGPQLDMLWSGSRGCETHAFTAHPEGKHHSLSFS

Usually IC50 stands for the concentration needed to halve the response being measured. As to `O=C(Nc1cn2c(-c3ccc(CN4CC[C@@H](O)C4)cc3)cccc2n1)C1CC1` [Compound 9], the IC50 in experiment [1] is 1 to 5 µM; in experiment [2], more than 5 µM; in experiment [3], more than 5 µM; in experiment [5], more than 5 µM. In addition, the “Selectivity JAK2/JAK1” value in experiment [2] is “A′ (A′ represents a ratio of greater than 8)”. Besides, the “Selectivity JAK3/JAK1” value in experiment [4] is recorded as “A′ (A′ represents a ratio of greater than 8)”. Also, the “Selectivity TYK2/JAK1” value in experiment [6] is given as “A′ (A′ represents a ratio of greater than 8)”.

Consider `N#CCc1ccc(-c2cccc3nc(NC(=O)C4CC4)cn23)c(F)c1` [Compound 16], for which the IC50 in experiment [1] was not above 0.5 µM; in experiment [2], more than 5 µM; in experiment [3], more than 5 µM; in experiment [5], more than 5 µM. For the same compound, the “Selectivity JAK2/JAK1” value in experiment [2] is listed as “A′ (A′ represents a ratio of greater than 8)”. The “Selectivity JAK3/JAK1” value in experiment [4] was “A′ (A′ represents a ratio of greater than 8)”. In addition, the “Selectivity TYK2/JAK1” value in experiment [6] is “A′ (A′ represents a ratio of greater than 8)”.

Turning to `Nc1cn2c(-c3ccc(CN4CCS(=O)(=O)CC4)cc3)cccc2n1` [Compound 19], the 50% inhibitory concentration (IC50) in experiment [1], in experiment [2], in experiment [3] and in experiment [5] was more than 5 µM each time. Further, in experiment [2], the “Selectivity JAK2/JAK1” value was “A′ (A′ represents a ratio of greater than 8)”. In experiment [4], the “Selectivity JAK3/JAK1” value is “D′ (D′ represents a ratio of no greater than 2)”. In experiment [6], the “Selectivity TYK2/JAK1” value is given as “C′ (C′ represents a ratio of no greater than 4 but no less than 2)”.

In the case of `CC(C#N)c1ccc(-c2cccc3nc(NC(=O)C4CC4)cn23)cc1` (centres unmarked) [Compound 27], the half-inhibitory concentration (IC50) in experiment [1] was 0.5 to 1 µM; in experiment [2], more than 5 µM; in experiment [3], more than 5 µM; in experiment [5] it was more than 5 µM. Besides, the “Selectivity JAK2/JAK1” value in experiment [2] was “A′ (A′ represents a ratio of greater than 8)”. For the same compound, the “Selectivity JAK3/JAK1” value in experiment [4] was “A′ (A′ represents a ratio of greater than 8)”. Besides, the “Selectivity TYK2/JAK1” value in experiment [6] was “A′ (A′ represents a ratio of greater than 8)”.

With `O=C(Nc1cn2c(-c3ccc(CN4CC[C@H](O)C4)cc3)cccc2n1)C1CC1` [Compound 8], the 50% inhibitory concentration (IC50) in experiment [1] is 0.5 to 1 µM; in experiment [2], more than 5 µM; in experiment [3] it was more than 5 µM; in experiment [5], more than 5 µM. In experiment [2], the “Selectivity JAK2/JAK1” value is on record as “A′ (A′ represents a ratio of greater than 8)”. Further, the “Selectivity JAK3/JAK1” value in experiment [4] is “A′ (A′ represents a ratio of greater than 8)”. In experiment [6], the “Selectivity TYK2/JAK1” value is given as “A′ (A′ represents a ratio of greater than 8)”.

`N#CCc1ccccc1NCc1ccc(-c2cccc3nc(NC(=O)C4CC4)cn23)cc1` [Compound 32]: the half-maximal inhibitory concentration (IC50) in experiment [1] was not above 0.5 µM; in experiment [2], more than 5 µM; in experiment [3], more than 5 µM; in experiment [5] it was more than 5 µM. In addition, the “Selectivity JAK2/JAK1” value in experiment [2] was “A′ (A′ represents a ratio of greater than 8)”. Also, in experiment [4], the “Selectivity JAK3/JAK1” value is reported as “A′ (A′ represents a ratio of greater than 8)”. The “Selectivity TYK2/JAK1” value in experiment [6] is “A′ (A′ represents a ratio of greater than 8)”.

With `O=C(Nc1cn2c(-c3ccc(CN4CCCCC4)cc3)cccc2n1)C1CC1` [Compound 6], the IC50 in experiment [1] was 1 to 5 µM; in experiment [2] it was more than 5 µM; in experiment [3], more than 5 µM; in experiment [5], more than 5 µM. The “Selectivity JAK2/JAK1” value in experiment [2] is “A′ (A′ represents a ratio of greater than 8)”. Also, the “Selectivity JAK3/JAK1” value in experiment [4] is reported as “A′ (A′ represents a ratio of greater than 8)”. In experiment [6], the “Selectivity TYK2/JAK1” value is listed as “A′ (A′ represents a ratio of greater than 8)”.

With `COc1ccc(-c2cccc3nc(NC(=O)C4CC4)cn23)cc1` [Compound 10], the IC50 is 1 to 5 µM in experiment [1], more than 5 µM in experiment [2], more than 5 µM in experiment [3] and more than 5 µM in experiment [5]. Moreover, the “Selectivity JAK2/JAK1” value in experiment [2] was “A′ (A′ represents a ratio of greater than 8)”. Besides, the “Selectivity JAK3/JAK1” value in experiment [4] is on record as “A′ (A′ represents a ratio of greater than 8)”. Moreover, the “Selectivity TYK2/JAK1” value in experiment [6] is “A′ (A′ represents a ratio of greater than 8)”.
